Results: patent US20150344404A1, “PDK4 INHIBITOR AND USE THEREOF” (THE KITASATO INSTITUE, priority 2012, published 2015)
Read-outs that look alike come from different tables or passages of the source.

Columns and labels:
[1] = tested on: PDK isozymes 1, 2 and 3; conditions: background art; cited from earlier work
[2] = background art; cited from earlier work
[3] = biological target: recombinant human PDK4 (Homo sapiens, UniProt Q16654); experiment: PDK4 enzyme inhibitory activity by off-chip mobility shift assay; format: biochemical; conditions: recombinant human PDK4, room temperature, 5 hours
Protocol: Measurement of PDK4/PDK2 inhibitory activity by off-chip mobility shift assay: The compound solution (5 μL), 4×substrate/ATP/metal mixture (5 μL) and 2×recombinant human PDK4 (5 μL) were added to 384 well micro plate. After reacting at room temperature for 5 hours, the reaction stop solution (60 μL) was added to above solution. The substrate peptide (S) and phosphorylated peptide (P) was quantified using LabChip3000, then the inhibitory activity was calculated from the ratio (P/P+S).

[4] = Table 34, read-out: IC50, PDK inhibitory activity of representative compounds

Sequence of recombinant human PDK4 (Q16654 whole entry): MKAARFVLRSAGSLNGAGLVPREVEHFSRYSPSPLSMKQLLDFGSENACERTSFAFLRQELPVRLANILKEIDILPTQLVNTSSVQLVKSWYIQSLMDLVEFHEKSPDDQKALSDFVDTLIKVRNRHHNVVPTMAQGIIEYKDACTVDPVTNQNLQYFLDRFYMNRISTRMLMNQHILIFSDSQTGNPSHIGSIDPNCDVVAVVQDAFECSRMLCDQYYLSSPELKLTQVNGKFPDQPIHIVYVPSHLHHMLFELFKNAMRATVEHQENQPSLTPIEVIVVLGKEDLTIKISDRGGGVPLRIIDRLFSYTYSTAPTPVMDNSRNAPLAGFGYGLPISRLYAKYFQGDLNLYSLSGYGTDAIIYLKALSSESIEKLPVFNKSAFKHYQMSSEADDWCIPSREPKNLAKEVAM

Compound	IC50 ([3]; Table 35, read-out: IC50)	IC50 [3, 4]	other results
CN(C)C(=O)c1ccc(S(=O)(=O)c2ccc(NC(=O)[C@@](C)(O)C(F)(F)F)c(Cl)c2)cc1 [AZD7545]			IC50 against PDK isozymes 1, 2 and 3 [1]: sub μM order
O=C(O)C(Cl)Cl [Dichloro acetic acid]			side effect [2]: neurotoxicity
CC1=CC(=O)c2cc(C=CC(=O)NCC(=O)O)ccc2C1=O [KIS151]	17 µM		
CC1=CC(=O)c2ccc(C=O)cc2C1=O [KIS126]	22 µM		
CC1=CC(=O)c2ccccc2C1=O [KIS12]		38 µM	
O=C(O)c1ccc2c(c1)C(=O)C=CC2=O [KIS19]		19 µM	
CC1=CC(=O)c2cc(C(=O)N[C@@H](CO)C(=O)O)ccc2C1=O [KIS131, N-[(1,4-dihydro-1,4-dioxo-2-methyl-6-naphthylenyl)carbonyl]serine]	20 µM		
CC1=C(Br)C(=O)c2ccccc2C1=O [KIS147]	26 µM		
CC(=O)OCc1ccc2c(c1)C(=O)C=C(C)C2=O [KIS148]	19 µM		
CC1=CC(=O)c2ccncc2C1=O [KIS118]	16 µM		
O=C1CCC(=O)c2c(O)ccc(O)c21 [KIS58]		12 µM	
CC1=CC(=O)c2cc(C(=O)O)ccc2C1=O [KIS93, 6-carboxyl-2-methyl-1,4-naphthoquinone]		36 µM	
Cc1cc(N)c2ccccc2c1O [KIS61]		27 µM	
COC1=CC(=O)c2ccccc2C1=O [KIS69]		26 µM	
CC1=CC(=O)c2cc(C(=O)NCC(=O)OC(C)(C)C)ccc2C1=O [KIS98, Glycine, N-[(1,4-dihydro-1,4-dioxo-2-methyl-6-naphthylenyl)carbonyl], tert-butyl ester]		23 µM	
CC1=CC(=O)c2cc(CO)ccc2C1=O [KIS96, 6-hydroxymethyl-2-methyl-1,4-naphthoquinone]		30 µM	
CC1=CC(=O)c2ccc(CO)cc2C1=O [KIS128]	27 µM		
COC(=O)c1cc(O)c2c(c1)C(=O)C(C)=CC2=O [KIS79, 7-carbomethoxy-5-hydroxy-2-methyl-1,4-naphthoquinone]		9 µM	
CC1=CC(=O)c2cc(C=O)ccc2C1=O [KIS97, 6-formyl-2-methyl-1,4-naphthoquinone]		18 µM	
CC1=CC(=O)c2c(O)cc(C(=O)O)cc2C1=O [KIS90, 7-carboxy-5-hydroxy-2-methyl-1,4-naphthoquinone]		20 µM	
CC1=CC(=O)c2cc(C(=O)NCC(=O)O)ccc2C1=O [KIS99, N-[(1,4-dihydro-1,4-dioxo-2-methyl-6-naphthylenyl)carbonyl]glycine]		21 µM	
CC1=CC(=O)c2ccc(C(=O)O)cc2C1=O [KIS78, 7-carboxyl-2-methyl-1,4-naphthoquinone]		46 µM	
CC1=CC(=O)c2cc(C(C)O)ccc2C1=O (racemic) [KIS92, (±)-2-methyl-6-(1-hydroxyethyl)-1,4-naphthoquinone]		46 µM	
CCOC(=O)c1ccc2c(c1)C(=O)C=C(C)C2=O [KIS127]	26 µM		
COC(=O)c1ccc2c(c1)C(=O)C=C(C)C2=O [KIS95, 6-carbomethoxy-2-methyl-1,4-naphthoquinone]		26 µM	
C#CCNC(=O)c1ccc2c(c1)C(=O)C=C(C)C2=O [KIS153]	36 µM		
